The values that follow come from patent US8063212B2, “Imidazolidinonyl aminopyrimidine compounds for the treatment of cancer” (Eli Lilly and Company, priority 2006, dated 2011).

Read-outs that look alike come from different tables or passages of the source.

In one series the test system is HCT116 cells. The series can be described thus: Antiproliferative Assay. As to conditions: Homo sapiens, HCT-116, 72 hours, Alamar Blue, n=3, MSR 3.1. The series is classed as cell-based. The method, then:
The effects of compounds on cell proliferation can be determined using cells and cell proliferation methods well-known in the art (Robert C. Squatrito et al., Gynecological Oncology, 58, 101-105, (1995)). For example, HCT116 cells, which may be obtained from the American Type Culture Collection, may be seeded at ˜2000 cells/well in 96-well plates and allowed to attach overnight in a humidified CO2 incubator at 37° C. Following the 20-24 hour incubation, half-log serially diluted compounds are added and the plates are returned to the incubator. After an appropriate length of exposure (e.g., 72 hours), cell proliferation is estimated using well-known methods. In one method, 10 μL of a tetrazolium salt, such as Alamar Blue™ is added to the cell plates. After an appropriate exposure to the dye, fluorescence (530 nm excitation, 580 nm emission) is determined. The resulting IC50 has an MSR of 3.1.

A further series concerns HeLa Cells. The series can be described thus: pHH3(S10), Mitotic Cells, and DNA Content Assays. The note with it: Homo sapiens, 23 hours exposure. The format is cell-based. The method, then:
HeLa Cells from the American Type Culture Collection (ATCC) are plated at 200 cells/well in 96 well […] BIOCOAT™ plates, and are incubated in MEM (Minimum Essential Medium, e.g., GIBCO, catalog #11095) with 10% FBS (Fetal Bovine Serum) in 37° C., 5% CO2 for 24 hours. Cells are treated by adding compound (in 0.25% DMSO) to the medium, dosing at 10 points across the range […] to 0.0098 μM. After 23 hours exposure to the compounds, cells are fixed, for example with the PREFER™ fixative [Anatech LTD., Catalog #414] for 30 min then are permeablized with 0.1% TRITON® X100 in phosphate buffered saline (PBS) solution for 15 min. Cells are washed 3 times with PBS then digested with 50 μg/mL RNAse. Primary antibody, phosphohistone H3 (Upstate Cat#06-570), is added at 1:500 in PBS with 1% bovine serum albumin (BSA) to the cells over night at 4° C. After 3 PBS washes, cells are incubated with Alexa488 labeled secondary antibody (Invitrogen cat #A11008) for 1 hour at room temperature. Again they are washed 3 times with PBS, and then 15 μM propidium iodide (Molecular Probes cat #P3566) is added for 30 min to stain nuclei. Fluorescence Plates are scanned with ACUMEN EXPLORER™ [Laser-scanning fluorescence microplate cytometer (comprising of 488 nm argon ion laser excitation and multiple photomultiplier tube detection), manufactured by TTP LABTECH LTD] to measure phosphohistone H3, DNA content and mitotic cells as measured by DNA condensation. Image analysis are based on cellular fluorescent signals for identifying cells in different subpopulations. pHH3(S10) positive cells are identified by mean intensity at 500-530 nm above the threshold. Total intensity at 655-705 nm from propidium iodide/DNA is used to identify individual cells (cells with DNA content from 2N to 4N) and subpopulations in cell cycle (2N cells, 4N cells). Peak intensity at 575-640 nm is used to identify DNA condensation that is used as the marker to identify mitotic cells among 4N cells. […] The ECso is determined by curve fitting to a four parameter logistic for each output using ACTIVITY BASE™.

The next series addresses T1, Plk1 (Homo sapiens, UniProt P53350).
T1 construct: made in house; host or cells: baculovirus-infected Sf9 cells, treated with okadaic acid before harvest; the substrate was made in E. coli BL21
The series can be described thus: Plk1 Inhibition Assay. The series is classed as biochemical. The note with it: Absolute IC50, 5.0 μM ATP, GST-Cdc25c (1-206) substrate, 60 min; MSR 3.6. From the text: Human Plk1 cDNA, which may be obtained from a number of sources, such as Incyte (accession number: NM_005030), may be directly linked at one of its termini with a polynucleotide sequence expressing a His6 tag, such as the C-terminal FLAG-His6 tag, and inserted into an appropriate expression vector, such as a pFastBac™ vector (Invitrogen) and transfected into an appropriate system, such as baculovirus similar to what has been reported by Yue-Wei Qian, et al., Science, 282, 1701 (1998) for xPlkk1. If a viral expression system is used, then the virus (e.g., baculovirus bearing a Plk1-Flag-His6 tag polynucleotide construct) is infected into a culture of a suitable host cell, such as Sf9 cells. […]
Plk1 kinase reactions contain Plk1-Flag-His6 tag fusion enzyme (0.2 ng/μL) in a buffer containing 50 mM HEPES, pH 7.3, 1.0 mM dithiothreitol, 5.0 μM ATP, 10 mM MgCl2, 0.01% TRITON® X-100, 0.4 μCi ^33P-ATP, and 0.06 μg/μL GST-Cdc25c (1-206) peptide. […] Wells are dried before addition of 40 μL of MicroScint™ 20 (Packard) and then counted on a Wallac MICROBETA® Jet. The percentage inhibition values from the 10-point concentration response data are subsequently analyzed, for example, using ACTIVITY BASE™ software (IDBS), using a 4-parameter logistic equation. Absolute IC50 values are calculated from the resulting curve fit.

Series [1] deals with NClH460 murine xenografts. As to conditions: NClH460 murine xenograft; cited from earlier work.
A further series concerns A549 murine xenografts. As to conditions: A549 murine xenograft; cited from earlier work.
Another series concerns HCT116 murine xenografts. The note with it: HCT116 murine xenograft; cited from earlier work.
The conditions of series [2]: in man; cited from earlier work.

T1 sequence (P53350 whole entry): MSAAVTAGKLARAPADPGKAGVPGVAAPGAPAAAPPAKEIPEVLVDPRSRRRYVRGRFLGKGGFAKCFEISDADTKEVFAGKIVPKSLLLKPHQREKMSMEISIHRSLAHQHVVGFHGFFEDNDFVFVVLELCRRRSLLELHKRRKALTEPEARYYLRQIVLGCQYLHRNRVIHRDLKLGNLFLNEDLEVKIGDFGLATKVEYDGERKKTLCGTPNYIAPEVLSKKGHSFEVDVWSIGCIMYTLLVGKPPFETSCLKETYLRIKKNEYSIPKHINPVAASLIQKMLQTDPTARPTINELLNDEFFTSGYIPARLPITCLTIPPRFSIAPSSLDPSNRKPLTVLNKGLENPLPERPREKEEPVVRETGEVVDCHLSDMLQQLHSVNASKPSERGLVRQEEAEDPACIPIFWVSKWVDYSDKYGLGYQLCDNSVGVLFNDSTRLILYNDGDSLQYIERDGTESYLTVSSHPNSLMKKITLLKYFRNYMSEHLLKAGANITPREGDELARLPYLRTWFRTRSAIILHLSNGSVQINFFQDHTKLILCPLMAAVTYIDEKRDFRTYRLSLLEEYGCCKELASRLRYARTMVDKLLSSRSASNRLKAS

By IC50 is commonly meant the concentration that gives 50% inhibition. A low value points to higher potency. One may read the EC50 as the concentration giving half of the maximal effect. Turning to `CN(C)Cc1cnc(F)cc1-c1cccc2cc(-c3ccnc(NCCN4CCNC4=O)n3)sc12` [Example 4, 1-(2-{4-[7-(5-((Dimethylamino)methyl)-2-fluoropyridin-4-yl)benzo[b]thiophen-2-yl]pyrimidin-2-ylamino}ethyl)imidazolidin-2-one], the half-inhibitory concentration (IC50) in the series with HCT116 cells was 0.044 µM; against Plk1 it was roughly 0.025 µM. Besides, the EC50 in the series with HeLa Cells (n=1, MSR 2.5, read-out: mitotic EC50) was found to be 0.022 µM; in the series with HeLa Cells (n=1, MSR 2.6, read-out: pHH3(s10) EC50), 0.024 µM; with HeLa Cells (n=2, MSR 2.4, read-out: DNA content EC50), 0.035 µM.
For the compound `CC[C@@H]1C(=O)N(C)c2cnc(Nc3ccc(C(=O)NC4CCN(C)CC4)cc3OC)nc2N1C1CCCC1` [BI-2536], the “activity in preclinical model” value (in series [1]; in the series with A549 murine xenografts; in the series with HCT116 murine xenografts) was “demonstrated activity” each time. In series [2], the “clearance (CL)” value is recorded as greater than 1000 mL/min. Besides, in series [2], the dose limiting toxicity entry is recorded as “dose limited by myelosupression”.
